From PubChem BioAssay (NCI)
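Cultured in 96-well plates, cells were exposed to test compound for 48 hours across five concentrations. TGI: total growth inhibition.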

How the values were obtained:
Test in all cases: NCI-60 cell line screen, 48 h
U251 CNS = system: U251 CNS
UO-31 renal = system: UO-31 renal
786-0 renal = system: 786-0 renal
OVCAR-5 ovarian = system: OVCAR-5 ovarian
SNB-75 CNS = system: SNB-75 CNS
HCC-2998 colon = system: HCC-2998 colon
SR leukemia = system: SR leukemia
ACHN renal = system: ACHN renal
A549 NSCLC = system: A549 NSCLC
MOLT-4 leukemia = system: MOLT-4 leukemia
HT29 colon = system: HT29 colon
SF-539 CNS = system: SF-539 CNS
HOP-92 NSCLC = system: HOP-92 NSCLC
CCRF-CEM leukemia = system: CCRF-CEM leukemia
NCI-H23 lung = system: NCI-H23 lung
UACC-62 melanoma = system: UACC-62 melanoma
DLD-1 colon = system: DLD-1 colon
SK-OV-3 ovarian = system: SK-OV-3 ovarian
HL-60(TB) leukemia = system: HL-60(TB) leukemia
XF 498 CNS = system: XF 498 CNS
SK-MEL-28 melanoma = system: SK-MEL-28 melanoma
RPMI-8226 leukemia = system: RPMI-8226 leukemia
SNB-78 CNS = system: SNB-78 CNS
A498 renal = system: A498 renal
HCT-15 colon = system: HCT-15 colon
SNB-19 CNS = system: SNB-19 CNS
LOX IMVI melanoma = system: LOX IMVI melanoma
IGROV1 ovarian = system: IGROV1 ovarian
SF-295 CNS = system: SF-295 CNS
K-562 leukemia = system: K-562 leukemia
OVCAR-3 ovarian = system: OVCAR-3 ovarian
OVCAR-8 ovarian = system: OVCAR-8 ovarian
SF-268 CNS = system: SF-268 CNS
TK-10 renal = system: TK-10 renal
KM12 colon = system: KM12 colon
NCI-H460 lung = system: NCI-H460 lung
HOP-62 NSCLC = system: HOP-62 NSCLC
DMS 273 small cell lung = system: DMS 273 small cell lung
SW-620 colon = system: SW-620 colon
EKVX NSCLC = system: EKVX NSCLC
COLO 205 colon = system: COLO 205 colon
SK-MEL-2 melanoma = system: SK-MEL-2 melanoma
MALME-3M melanoma = system: MALME-3M melanoma
SK-MEL-5 melanoma = system: SK-MEL-5 melanoma
M14 melanoma = system: M14 melanoma
RXF 393 renal = system: RXF 393 renal
LXFL 529 NSCLC = system: LXFL 529 NSCLC
HOP-18 NSCLC = system: HOP-18 NSCLC
UACC-257 melanoma = system: UACC-257 melanoma
HCT-116 colon = system: HCT-116 colon
CAKI-1 renal = system: CAKI-1 renal
DMS 114 small cell lung = system: DMS 114 small cell lung
NCI-H522 lung = system: NCI-H522 lung
KM20L2 colon = system: KM20L2 colon
M19-MEL melanoma = system: M19-MEL melanoma

**Q.** COC1=CC(=O)C2C(C1=O)C(c1ccccc1)[C@H]2C (some centres not stated) was tested. Which TGI (U251 CNS) did it give?
**A.** > 100 µM

**Q.** What about the TGI (UO-31 renal) of the same molecule?
**A.** > 100 µM

**Q.** What about the TGI (786-0 renal) of the same molecule?
**A.** > 100 µM

**Q.** And the TGI (OVCAR-5 ovarian)?
**A.** > 100 µM

**Q.** And the TGI (SNB-75 CNS)?
**A.** > 100 µM

**Q.** What about the TGI (HCC-2998 colon) of the same molecule?
**A.** > 100 µM

**Q.** And the TGI (SR leukemia)?
**A.** > 100 µM

**Q.** What about the TGI (ACHN renal) of the same molecule?
**A.** 68.5 µM

**Q.** And the TGI (A549 NSCLC)?
**A.** > 100 µM

**Q.** What about the TGI (MOLT-4 leukemia) of the same molecule?
**A.** > 10 µM

**Q.** What about the TGI (HT29 colon) of the same molecule?
**A.** > 100 µM

**Q.** What about the TGI (SF-539 CNS) of the same molecule?
**A.** > 100 µM

**Q.** What about the TGI (HOP-92 NSCLC) of the same molecule?
**A.** 49.4 µM

**Q.** And the TGI (CCRF-CEM leukemia)?
**A.** > 100 µM

**Q.** What about the TGI (NCI-H23 lung) of the same molecule?
**A.** > 100 µM

**Q.** And the TGI (UACC-62 melanoma)?
**A.** > 100 µM

**Q.** And the TGI (DLD-1 colon)?
**A.** > 10 µM

**Q.** What about the TGI (SK-OV-3 ovarian) of the same molecule?
**A.** > 100 µM

**Q.** What about the TGI (HL-60(TB) leukemia) of the same molecule?
**A.** > 100 µM

**Q.** What about the TGI (XF 498 CNS) of the same molecule?
**A.** 49.1 µM

**Q.** What about the TGI (SK-MEL-28 melanoma) of the same molecule?
**A.** > 100 µM

**Q.** And the TGI (RPMI-8226 leukemia)?
**A.** > 100 µM

**Q.** What about the TGI (SNB-78 CNS) of the same molecule?
**A.** > 10 µM

**Q.** What about the TGI (A498 renal) of the same molecule?
**A.** > 100 µM

**Q.** And the TGI (HCT-15 colon)?
**A.** 35.9 µM

**Q.** And the TGI (SNB-19 CNS)?
**A.** > 100 µM

**Q.** What about the TGI (LOX IMVI melanoma) of the same molecule?
**A.** > 100 µM

**Q.** What about the TGI (IGROV1 ovarian) of the same molecule?
**A.** > 100 µM

**Q.** What about the TGI (SF-295 CNS) of the same molecule?
**A.** > 100 µM

**Q.** What about the TGI (K-562 leukemia) of the same molecule?
**A.** > 100 µM

**Q.** And the TGI (OVCAR-3 ovarian)?
**A.** > 100 µM

**Q.** What about the TGI (OVCAR-8 ovarian) of the same molecule?
**A.** > 100 µM

**Q.** And the TGI (SF-268 CNS)?
**A.** > 100 µM

**Q.** And the TGI (TK-10 renal)?
**A.** > 100 µM

**Q.** What about the TGI (KM12 colon) of the same molecule?
**A.** > 100 µM

**Q.** And the TGI (NCI-H460 lung)?
**A.** > 100 µM

**Q.** And the TGI (HOP-62 NSCLC)?
**A.** > 100 µM

**Q.** What about the TGI (DMS 273 small cell lung) of the same molecule?
**A.** > 100 µM

**Q.** What about the TGI (SW-620 colon) of the same molecule?
**A.** 36.6 µM

**Q.** And the TGI (EKVX NSCLC)?
**A.** > 100 µM

**Q.** What about the TGI (COLO 205 colon) of the same molecule?
**A.** > 100 µM

**Q.** And the TGI (SK-MEL-2 melanoma)?
**A.** > 100 µM

**Q.** And the TGI (MALME-3M melanoma)?
**A.** 57 µM

**Q.** What about the TGI (SK-MEL-5 melanoma) of the same molecule?
**A.** > 100 µM

**Q.** And the TGI (M14 melanoma)?
**A.** > 100 µM

**Q.** What about the TGI (RXF 393 renal) of the same molecule?
**A.** > 100 µM

**Q.** What about the TGI (LXFL 529 NSCLC) of the same molecule?
**A.** > 100 µM

**Q.** Which results are given for Cc1cc(=O)oc2c(C)c(OCCCOc3ccc4c(C)cc(=O)oc4c3C)ccc12?
**A.** TGI (U251 CNS): > 100 µM; TGI (UO-31 renal): > 100 µM; TGI (786-0 renal): > 100 µM; TGI (HOP-18 NSCLC): > 100 µM; TGI (UACC-257 melanoma): > 100 µM; TGI (OVCAR-5 ovarian): > 100 µM; TGI (SR leukemia): > 100 µM; TGI (A549 NSCLC): > 100 µM; TGI (MOLT-4 leukemia): > 100 µM; TGI (HT29 colon): > 100 µM; TGI (SF-539 CNS): > 100 µM; TGI (HOP-92 NSCLC): > 100 µM; TGI (CCRF-CEM leukemia): > 100 µM; TGI (NCI-H23 lung): > 100 µM; TGI (HCT-116 colon): > 100 µM; TGI (UACC-62 melanoma): > 100 µM; TGI (DLD-1 colon): > 100 µM; TGI (SK-OV-3 ovarian): > 100 µM; TGI (CAKI-1 renal): > 100 µM; TGI (HL-60(TB) leukemia): > 100 µM; TGI (XF 498 CNS): > 100 µM; TGI (SK-MEL-28 melanoma): > 100 µM; TGI (RPMI-8226 leukemia): > 100 µM; TGI (SNB-78 CNS): > 100 µM; TGI (A498 renal): > 100 µM; TGI (HCT-15 colon): > 100 µM; TGI (SNB-19 CNS): > 100 µM; TGI (LOX IMVI melanoma): > 100 µM; TGI (IGROV1 ovarian): > 100 µM; TGI (SF-295 CNS): > 100 µM; TGI (K-562 leukemia): > 100 µM; TGI (OVCAR-3 ovarian): > 100 µM; TGI (OVCAR-8 ovarian): > 100 µM; TGI (SF-268 CNS): > 100 µM; TGI (TK-10 renal): > 100 µM; TGI (DMS 114 small cell lung): > 100 µM; TGI (KM12 colon): > 100 µM; TGI (NCI-H460 lung): > 100 µM; TGI (HOP-62 NSCLC): > 100 µM; TGI (DMS 273 small cell lung): > 100 µM; TGI (SW-620 colon): > 100 µM; TGI (EKVX NSCLC): > 100 µM; TGI (SK-MEL-2 melanoma): > 100 µM; TGI (NCI-H522 lung): > 100 µM; TGI (MALME-3M melanoma): > 100 µM; TGI (SK-MEL-5 melanoma): > 100 µM; TGI (M14 melanoma): > 100 µM; TGI (LXFL 529 NSCLC): > 100 µM; TGI (KM20L2 colon): > 100 µM; TGI (M19-MEL melanoma): > 100 µM
